A short description of series [1]: Liver microsome metabolic stability in vitro, SD rat. Type of series: in vitro ADME. As to conditions: SD rat liver microsomes. The method, then: (§1) 3.2 preparation of nicotinamide adenine dinucleotide phosphate cofactor solution: an appropriate amount of NADPH powder was weighed and diluted into 10 mM magnesium chloride solution (working solution concentration: 10 unit/mL; final concentration of reaction system: 1 unit/mL);
(§2) 3.3 preparation of liver microsomes: an appropriate concentration working solution of liver microsomes (human, SD rat, CD-1 mouse, beagle dog) was prepared in 100 mM potassium phosphate buffer;
(§3) 3.4 preparation of quenching solution: cold (4° C.) acetonitrile containing 200 ng/mL tolbutamide and 200 ng/mL labetalol as internal standard (IS) was used as quenching solution;
(§4) 3.5 experimental operation:
(§5) a. empty “incubation” plates T60 and NCF60 were preheated for 10 minutes;
(§6) b. the liver microsomes were diluted to 0.56 mg/mL with 100 mM phosphate buffer;
(§7) c. 445 μL of microsomal working solution (0.56 mg/mL) was transferred to the preheated “incubation” plates T60 and NCF60, and then the“incubation” plates T60 and NCF60 were preincubated for 10 min with continuous shaking at 37° C. 54 μL of liver microsomes were transferred to a blank plate, and 6 μL of NAPDH cofactor was added to the blank plate, and then 180 μL of quenching solution was added thereto;
(§8) e. for NCF60 plate, 50 μL of buffer was added thereto and the mixture was fully mixed for three times. Timing was started; the plate was shaken at 37° C. for 60 minutes;
(§9) f. in “quenching” plate TO, 180 μL of quenching solution and 6 μL of NAPDH cofactor were addded to make sure that the plate was cooled down to prevent evaporation;
(§10) g. for T60 plates, the mixture was fully mixed for three times, and 54 μL of mixture was immediately transferred to the “quenching” plate at the 0 min time point. 44 μL of NAPDH cofactor was then added to the culture plate (T60). Timing was started; the plate was shaken at 37° C. for 60 minutes;
(§11) h. at 5, 10, 20, 30 and 60 min, 180 μL of quenching solution was added to the “quenching” plate, and the mixture was mixed for one time, and 60 μL of sample was continuously transferred from the T60 plate to the “quenching” plate at each time point;
(§12) i. for NCF60: the mixture was mixed for one time, and 60 μL of sample was transferred from the NCF60 culture dish to the “quenching” plate containing quenching solution at 60 minutes time point;
(§13) j. all sampling plates were shaked for 10 minutes, then centrifuged at 4000 rpm for 20 minutes at 4° C.;
(§14) k. 60 μL of supernatant was transferred into 180 μL of HPLC water and stirred with a plate shaker for 10 min;
(§15) 1. before LC-MS/MS analysis, each bioanalysis plate was sealed and shaked for 10 minutes.
Background: Liver microsomes are vesicles of endoplasmic reticulum, rich in cytochrome P450 enzymes.

Series [2] can be described thus: Liver microsome metabolic stability in vitro, human. Type of series: in vitro ADME. As to conditions: human liver microsomes. The method, then: as §1, §2, §3, §4, §5, §6, §7, §8, §9, §10, §11, §12, §13, §14, §15
The nature of series [3]: Liver microsome metabolic stability in vitro, CD-1 mouse. Type of series: in vitro ADME. As to conditions: CD-1 mouse liver microsomes. The method, then:
as §1, §2, §3, §4, §5, §6, §7, §8, §9, §10, §11, §12, §13, §14, §15

The nature of series [4]: In vivo pharmacokinetic property evaluation in CD-1 mice (IV and PO). As to conditions: mouse, plasma; for MRT last: read-out: MRT0-last. The method, then: The in vivo pharmacokinetic properties of compound 2 were evaluated in CD-1 mice by intravenous administration and oral administration. IV (intravenous injection) refers to slow administration in jugular vein, and PO (oral administration) refers to administration by gavage. Formulations for intravenous and gavage administration were both 2.5% dimethylsulfoxide, 5% ethanol, 10% cremophor EL, 20% glucose solution (concentration of 5%), 62.5% water. PK time points in the intravenous injection group were 5 min, 15 min, 30 min, 1 h, 2 h, 4 h, 8 h, 12 h and 24 h after administration, respectively, and PK time points in the gastric administration group were 15 min, 30 min, 1 h, 2 h, 4 h, 8 h and 24 h after administration, respectively. Approximately 0.03 mL of blood was collected at each time point. Blood from each sample was transferred to a plastic microcentrifuge tube containing EDTA-K2, centrifuged at 4000 rpm for 5 min in a 4° C. centrifuge, and plasma was collected within 15 min, and the plasma samples were stored in polypropylene tubes. Before the test, samples were stored in a refrigerator at −75±15° C. The concentration of compounds in plasma samples was analyzed using the LCMS/MS method and the following pharmacokinetic parameters were calculated using WinNonlin software (Phoenix™, version 6.1): IV: C0, Cl, Vd, T1/2, AUC0-last, MRT0-last, regression points; PO: Cmax, Tmax, T1/2, AUC0-last, MRT0-last, regression points. Pharmacokinetic data were described using descriptive statistics, such as mean, standard deviation.

The results in this text go back to patent US20230128137A1, “BENZO FIVE-MEMBERED CYCLIC COMPOUND” (MEDSHINE DISCOVERY INC., priority 2020, published 2023).

SMILES strings stand for the structures. Where two headings read alike, the source gives them in different places.

The CLint scaled is the rate of metabolic loss divided by the concentration. One may read the half-life as how long it takes for the measured level to halve. The AUC(0-t) is exposure summed from dosing to a finite time, without extrapolation to infinity. A lower AUC(0-t) goes with low exposure. As a reminder, the Cmax is the maximum level reached in the sampled fluid or tissue. By Tmax is commonly meant the time at which the peak concentration occurs. In series [1], `CC1(C)CCC(CN2CCN(c3ccc(C(=O)NS(=O)(=O)c4cc([N+](=O)[O-])c(NCC5CCOCC5)c5[nH]cnc45)c(Oc4cnc5[nH]ccc5c4)c3)CC2)=C(c2ccc(Cl)cc2)C1` [Compound 2] had an intrinsic clearance (CLint scaled) at 1 µM of 23.6 mL/min/kg and a half-life at 1 µM of 1.76 h. In addition, the “Remaining (T = 60 min)” value in series [1] (60 min incubation) worked out at 64.1%. Also, in series [2] (60 min incubation), the “Remaining (T = 60 min)” value was determined as 45.6%. Besides, in series [2] (human), the CLint scaled at 1 µM was 23.9 mL/min/kg and the half-life at 1 µM is 0.87 h. In series [3], this compound yielded a CLint scaled at 1 µM of 79.7 mL/min/kg and a half-life at 1 µM of 1.15 h. The “Remaining (T = 60 min)” value in series [3] (60 min incubation) is recorded as 54.6%. Moreover, in series [4] (1 mg/kg, IV, 1 mpk), the AUC(0-t) was found to be 1.8 µM·h, the C0 came out at 11.7 µM, the clearance turned out to be 10.2 mL/min/kg and the half-life was 3.35 h. Also, the MRT last in series [4] (1 mg/kg, IV, 1 mpk) worked out at 1.21 h. Besides, the Vd in series [4] (1 mg/kg, IV, 1 mpk, read-out: Vdss) came out at 0.834 L/kg. Further, in series [4] (50 mg/kg, PO, 50 mpk), the AUC(0-t) amounted to 12.8 µM·h, the concentration peaked (Cmax) at 1.79 µM, the Tmax came out at 3 h and the half-life is 4.1 h. The MRT last in series [4] (50 mg/kg, PO, 50 mpk) is 6.22 h.
